Assay results published in US20100331330A1, “METHODS AND COMPOSITIONS FOR TREATING ISCHEMIC STROKE” (priority 2006, published 2010).
Entries after “also recorded” stand apart in the source; their conditions may differ. Read-outs that look alike come from different tables or passages of the source.

How the values were obtained:
3T3-L1 cells = conditions: cited from earlier work
myeloperoxidase-IR cells = test: Quantification of myeloperoxidase-IR cells (leukocyte infiltration) after MCAO; assay type: in vivo, rat
Text: Frozen sections of the brains were cut coronally at ten microns. Sections were collected every 1000 mm beginning at the level of the forceps minor corpus callosum and extending through the hippocampus. Ten micron cryostat sections were labeled using either mouse anti-ICAM (Sertec, UK) or rabbit antimyeloperoxidase (Dacko) antibodies in 5% rat serum. Primary antibodies were visualized using either goat anti-mouse conjugated to Oregon Green or goat anti-rabbit conjugated to Oregon-Green (Molecular Probes, Eugene, Oreg.) in 5% rat serum. Adjacent sections were incubated without primary antisera to control for non-specific binding of the secondary antiserum. Sections were viewed using a fluorescent microscope and images acquired and stored using Spot Advanced imaging software (Spot Image Corporation, Chantilly, Va.). […]
Myeloperoxidase-IR cells were quantified from cryostat sections through the maximal area of infarction labeled with rabbit anti-myeloperoxidase antibody followed by anti-rabbit antibodies conjugated to Oregon-green. Digital photographs of high powered fields covering a representative section were analyzed in Adobe Photoshop by overlaying a grid and counting all myeloperoxidase-IR cells. The average number of myeloperoxidase-IR cells per high powered field (360 μm2) was calculated and plotted using data from at least three animals.

[1] = test system: rodent models of cerebral ischemia; conditions: cited from earlier work
LPL mRNA = test: Lipoprotein lipase (LPL) mRNA by real time PCR after MCAO; assay type: in vivo, rat; conditions: rosiglitazone 0.1 mg/kg, pioglitazone 1.0 mg/kg; 24 h before and at time of 2 hour MCAO; tissue 24 h later
Text: At the time of sacrifice the animal was placed in an anesthesia chamber and exposed to 5% halothane, 30% oxygen, 65% nitrous oxide until it ceased breathing. The rat was the, processed for either histologic and immunocytochemical analysis or decapitated and the brain immediately dissected for mRNA isolation. Animals used for immunohistochemistry underwent intracardiac perfusion; the thoracic cavity was opened, a blunt needle placed through the left ventricle into the aorta and the right atrium cut. Animals were perfused through the heart, first with 0.1 M phosphate buffer and then with 4% paraformaldehyde (pH 7.4). The brain was removed from the rat and immersion fixed in 4% paraformaldehyde for an additional hour. Tissue was then transferred to 30% sucrose in phosphate buffer in order to cyroprotect it. Brains were mounted in OCT sectioning medium and frozen sections cut at either twenty microns (for infarct volume determination) or ten microns (for immunocytochemistry). Animals used in real time PCR experiments were decapitated after euthanasia and the brain quickly removed.
A 2 mm thick coronal slice of tissue through the area of maximal infarction was quickly homogenized in Trizol (Gibco BRL, Rockville, Md.). […] RNA was isolated using Life Technologies Protocol (Rockville, Md.), and cDNA synthesized from 1.5 μg of total RNA. […]

ICAM mRNA = ICAM mRNA by real time PCR after MCAO; assay type: in vivo, rat; conditions: rosiglitazone 0.1 mg/kg or pioglitazone 1 mg/kg 24 h before and at time of 2 hour MCAO; sacrificed 24 h later
[2] = two hour continuous monitoring; previously shown; cited from earlier work
dopaminergic cell death = conditions: Parkinson's disease model; cited from earlier work
ICAM = ICAM immunohistochemistry of brain sections after MCAO; assay type: in vivo, rat; conditions: rosiglitazone 0.1 mg/kg or pioglitazone 1 mg/kg 24 h before and at time of MCAO; sacrificed 24 h later
Text: Animals were euthanized and brains prepared in the same manner described for infarct volume determination. Frozen sections of the brains were cut coronally at ten microns. Sections were collected every 1000 mm beginning at the level of the forceps minor corpus callosum and extending through the hippocampus. Ten micron cryostat sections were labeled using either mouse anti-ICAM (Sertec, UK) or rabbit antimyeloperoxidase (Dacko) antibodies in 5% rat serum. Primary antibodies were visualized using either goat anti-mouse conjugated to Oregon Green or goat anti-rabbit conjugated to Oregon-Green (Molecular Probes, Eugene, Oreg.) in 5% rat serum. Adjacent sections were incubated without primary antisera to control for non-specific binding of the secondary antiserum. Sections were viewed using a fluorescent microscope and images acquired and stored using Spot Advanced imaging software (Spot Image Corporation, Chantilly, Va.). Some sections were also imaged using confocal microscopy.

[3] = test system: rats subjected to middle cerebral artery occlusion (MCAO); conditions: for infarction volume relative to vehicle injected rats: assayed 24 h after MCAO
Text: Male Wistar rats, 250-350 g, were obtained from Charles River (Wilmington, Mass.). Animals were housed and cared for in the Animal Resource Center and allowed free access to food and water before and after surgery. All procedures were approved by the Institutional Animal Care and Use Committee of Case Western Reserve University.
A 4.0 nylon suture with a flame rounded tip was advanced through the internal carotid artery to occlude the MCA while cerebral blood flow was monitored using laser doppler (Perimed AB, Jarfalla, Sweden). At the time of reperfusion rats were again anesthetized and the suture removed with cerebral blood flow monitoring to ensure reperfusion. Arterial blood pressure, arterial blood gases and temperature were all monitored and controlled during the length of the procedure.
Control animals were injected with 0.1 ml DMSO.
Rats were euthanized by exposure to 5% halothane until breathing ceased. They then underwent intracardiac perfusion first with PBS and then with 4% paraformaldehyde. Brains were isolated and immersion fixed in 4% paraformaldehyde overnight. Tissue was cryoprotected in 30% sucrose in PBS. Twenty micron frozen sections were collected every […] beginning at the level of the forceps minor corpus callosum and extending through the hippocampus. Sections were stained with Thionin and the area of infarction measured using Bioquant computer software (R&M Biometrics, Nashville, Tenn.) by subtracting the uninfarcted tissue in the ischemic hemisphere from the volume of the contralateral hemisphere. This method corrects for post-ischemic edema.
Male Wistar rats, 250-350 g, were obtained from Charles River (Wilmington, Mass.). […] Animals were housed and cared for in the Animal Resource Center and allowed free access to food and water before and after surgery. […] The tail artery was exposed and cannulated to measure mean arterial blood pressure and to obtain blood for blood gas measurements during surgery. Animals in which normal temperature, blood pressure and gases could not be maintained were excluded from the study. MCAO was performed as previously described. Briefly, the bifurcation of the common carotid artery was exposed. The external carotid artery was isolated and a suture placed 0.5 cm from the bifurcation. Following electrocoagulation distal to the suture the external carotid was cut between the suture and the electrocoagulated segment. A suture was applied to the common carotid artery such that it could be removed later. A loop of suture was then placed under the internal carotid artery and the artery elevated to transiently occlude blood flow. A small nick was made in the wall of the external carotid artery. Through this nick a 22 mm length of 4.0 Ethicon suture, its tip rounded by heating near a flame, was gently threaded from the external to the internal carotid artery lumen to a distance of 18 mm from the bifurcation of the carotid. The thread was held in place with a suture around the stump of the external carotid artery and the suture around the internal carotid artery released. The catheter was removed from the tail artery and both incisions were closed. The rats were then allowed to recover from anesthesia. […] The neck incision was reopened and the 4.0 Ethicon suture removed. The suture that held it in place was tightened and the suture around the common carotid artery was removed. After confirmation of reperfusion by visual inspection, the incision was closed and the animal allowed to recover.
Twenty micron frozen sections of paraformaldehyde fixed brains were collected every 1000 μm beginning at the level of the forceps minor corpus callosum and extending through the hippocampus. The slides were stained with Thionin. The sections were then trans-illuminated and the image transmitted to a computer screen.

CCc1ccc(CCOc2ccc(CC3SC(=O)NC3=O)cc2)nc1 (stereo not shown) [pioglitazone, 5-[4-[2-(5-ethylpyridin-2-yl)ethoxyl]benzyl]thiazolidine-2,4-dione]
effect on PPARγ-corepressor complex (3T3-L1 cells): dissociation of the PPARγ-corepressor complex and transcriptional activation
myeloperoxidase-IR cells within the ischemic hemisphere (myeloperoxidase-IR cells; reperfused at 2 h and treated at 3 h, relative to treated at 3 h and reperfused at 3.25 h): significantly increased numbers of myeloperoxidase-IR cells
number of myeloperoxidase-IR cells per high powered field (myeloperoxidase-IR cells; rosiglitazone 0.1 mg/kg or pioglitazone 1 mg/kg at 3 h, reperfusion delayed to 3.25 h, relative to reperfusion at 2 h): significantly reduced
neuroprotection in rodent models of cerebral ischemia ([1]; in vivo): effective neuroprotective agents
efficacy of oral pretreatment ([1]; permanent ischemia): but not permanent ischemia
efficacy of oral pretreatment ([1]; transient ischemia): effective in transient
increase in LPL mRNA levels within the ischemic hemisphere (LPL mRNA): 307%
ICAM mRNA compared with vehicle treated rats (ICAM mRNA): significant reduction in ICAM mRNA
cerebral blood flow [2]: no significant change in cerebral blood flow
dopaminergic cell death (dopaminergic cell death): attenuates dopaminergic cell death
ICAM-IR in brain sections compared with vehicle treated rats (ICAM): less is seen
infarction volume relative to vehicle injected rats ([3]; 0.5 mg/kg IP 24 h before and at time of 2 hour MCAO): did not significantly reduce infarction volume
infarct volume compared to vehicle treated rats ([3]; 1 mg/kg IP 1 hour after onset of 2 hour MCAO): significantly reduce infarction volume; also recorded: significantly reduced
infarct volume compared to vehicle treated rats ([3]; 1 mg/kg IP 6 hours after onset of 2 hour MCAO): not when given three or six hours after MCAO; also recorded: no significant change in infarct volume
infarction volume relative to vehicle injected rats ([3]; 1 mg/kg IP 24 h before and at time of 2 hour MCAO): significantly reduced infarction size
infarction volume relative to vehicle injected rats ([3]; 1 mg/kg IP 24 h before and at time of 2 hour MCAO, listed as Pioglitazone): did significantly reduce infarction volume; also recorded: significantly reduced infarction volume
infarction volume relative to vehicle treated rats ([3]; 1 mg/kg IP 24 h before and at time of MCAO, permanent occlusion, listed as Pioglitazone): no significant protection was evident
infarction volume relative to vehicle injected rats ([3]; 3.5 mg/kg IP 24 h before and at time of 2 hour MCAO): did significantly reduce infarction volume
infarction volume relative to vehicle injected rats ([3]; 7 mg/kg IP 24 h before and at time of 2 hour MCAO): protection was lost
optimal dose for neuroprotection ([3]; IP 24 h before and at time of 2 hour MCAO, infarct volume 24 h after MCAO): 1 mg/kg
infarct volume compared to vehicle treated rats ([3]; pioglitazone 1 mg/kg or rosiglitazone 0.1 mg/kg 3 hours after MCAO onset, reperfusion at 2 hours (before treatment)): not when given three or six hours after MCAO; also recorded: infarction volumes which were similar to animals injected with vehicle; also recorded: no significant change in infarct volume; also recorded: infarction volumes similar to those previously seen in untreated and vehicle treated rats
infarction volume relative to rats reperfused at two hours ([3]; pioglitazone 1 mg/kg or rosiglitazone 0.1 mg/kg 3 hours after MCAO onset, reperfusion at 3 hours 15 minutes (after treatment)): neuroprotective when given up to three hours after MCAO, but only if reperfusion occurs after treatment; also recorded: significantly smaller infarctions volumes; also recorded: significantly reduced infarction volumes
